Our source for the pest or weed control and YFM rating values is patent publication US9924716B2, “Molecules having pesticidal utility, and intermediates, compositions, and processes, related thereto” (Dow AgroSciences LLC, priority 2016, dated 2018).

What all share (type): in vivo
Experiment [1] relates to Beet Armyworm (Spodoptera exigua, LAPHEG) second instar larvae. Description: Bioassay on Beet Armyworm (BAW), 128-well diet tray assay. The conditions noted are these: Beet Armyworm, Table ABC Biological Results, read-out: BAW rating. As to the method: (§1) Certain molecules disclosed in this document were tested against BAW, CEW, and CL using procedures described in the following examples. In the reporting of the results, the “BAW, CEW, & CL Rating Table” was used (See Table Section).
Bioassays on BAW were conducted using a 128-well diet tray assay. one to five second instar BAW larvae were placed in each well (3 mL) of the diet tray that had been previously filled with 1 mL of artificial diet to which 50 μg/cm^2 of the test molecule (dissolved in 50 μL of 90:10 acetone-water mixture) had been applied (to each of eight wells) and then allowed to dry. Trays were covered with a clear self-adhesive cover and held at 25° C., 14:10 light-dark for five to seven days. Percent mortality was recorded for the larvae in each well; activity in the eight wells was then averaged. The results are indicated in the table entitled “Table ABC: Biological Results” (See Table Section).
(§2) Bioassays on BAW and CL were conducted according to the procedures outlined in Example A: Bioassays on Beet Armyworm (“BAW”) and Cabbage Looper (“CL”) using the indicated concentrations.

For experiment [2], the system named is Cabbage Looper (Trichoplusia ni, TRIPNI) second instar larvae. Kind of experiment: Bioassay on Cabbage Looper (CL), 128-well diet tray assay. The conditions noted are these: Cabbage Looper, Table ABC Biological Results, read-out: CL rating. The procedure: as §1
Bioassays on CL were conducted using a 128-well diet tray assay. one to five second instar CL larvae were placed in each well (3 mL) of the diet tray that had been previously filled with 1 mL of artificial diet to which 50 μg/cm^2 of the test molecule (dissolved in 50 μL of 90:10 acetone-water mixture) had been applied (to each of eight wells) and then allowed to dry. Trays were covered with a clear self-adhesive cover and held at 25° C., 14:10 light-dark for five to seven days. Percent mortality was recorded for the larvae in each well; activity in the eight wells was then averaged. The results are indicated in the table entitled “Table ABC: Biological Results” (See Table Section).
as §2

In experiment [3] the test system is Yellow Fever Mosquito (Aedes aegypti, AEDSAE) larvae. Description: Bioassay on Yellow Fever Mosquito (YFM), 96-well plate larval assay. The conditions noted are these: Table ABC Biological Results. The procedure:
Certain molecules disclosed in this document were tested against YFM using procedures described in the following paragraph. In the reporting of the results, the “GPA & YFM Rating Table” was used (See Table Section).
Master plates containing 400 μg of a molecule dissolved in 100 μL of dimethyl sulfoxide (DMSO) (equivalent to a 4000 ppm solution) are used. A master plate of assembled molecules contains 15 μL per well. To this plate, 135 μL of a 90:10 water:acetone mixture is added to each well. A robot (Biomek® NXP Laboratory Automation Workstation) is programmed to dispense 15 μL aspirations from the master plate into an empty 96-well shallow plate (“daughter” plate). There are 6 reps (“daughter” plates) created per master. The created daughter plates are then immediately infested with YFM larvae.
The day before plates are to be treated, mosquito eggs are placed in Millipore water containing liver powder to begin hatching (4 g. into 400 mL). After the daughter plates are created using the robot, they are infested with 220 μL of the liver powder/larval mosquito mixture (about 1 day-old larvae). After plates are infested with mosquito larvae, a non-evaporative lid is used to cover the plate to reduce drying. Plates are held at room temperature for 3 days prior to grading. After 3 days, each well is observed and scored based on mortality. The results are indicated in the table entitled “Table ABC: Biological Results” (See Table Section).

Regarding `C[C@H](NC(=O)CCC(F)(F)F)NC(=O)c1ccc(/C(F)=C/C(c2cc(Cl)c(Br)c(Cl)c2)C(F)(F)F)cc1C(F)(F)F` (stereo partly drawn) [F15, 4-((Z)-3-(4-Bromo-3,5-dichlorophenyl)-1,4,4,4-tetrafluorobut-1-en-1-yl)-N—((R)-1-(4,4,4-trifluorobutanamido)ethyl)-2-(trifluoromethyl)benzamide], the pest or weed control at 50 µg/cm2 in experiment [1] and in experiment [2] was 50 to 100% in each case. Moreover, the YFM rating entry in experiment [3] is “A (80-100)”.

`C=Cc1c(Cl)cc(C(/C=C(\F)c2ccc(C(=O)N[C@H](C)NC(=O)CC(F)(F)F)c(C(F)(F)F)c2)C(F)(F)F)cc1Cl` (stereo partly drawn) [F18, 4-((Z)-3-(3,5-Dichloro-4-vinylphenyl)-1,4,4,4-tetrafluorobut-en-1-yl)-2-(trifluoromethyl)-N—((R)-1-(3,3,3-trifluoropropanamido)ethyl)benzamide]: the pest or weed control at 50 µg/cm2 in experiment [1] and in experiment [2] was 50 to 100% in each case. The YFM rating result in experiment [3] is reported as “A (80-100)”.

Turning to `C=Cc1c(Cl)cc(C(/C=C(\F)c2ccc(C(=O)N[C@H](C)NC(=O)CCC(F)(F)F)c(C(F)(F)F)c2)C(F)(F)F)cc1Cl` (stereo partly drawn) [F19, 4-((Z)-3-(3,5-Dichloro-4-vinylphenyl)-1,4,4,4-tetrafluorobut-1-en-1-yl)-N—((R)-1-(4,4,4-trifluorobutanamido)ethyl)-2-(trifluoromethyl)benzamide], the pest or weed control at 50 µg/cm2 in experiment [1] and in experiment [2] was 50 to 100% throughout. Also, the YFM rating result in experiment [3] is “A (80-100)”.

On to `C[C@H](NC(=O)CC(F)(F)F)NC(=O)c1ccc(/C(F)=C/C(c2cc(Br)cc(Br)c2)C(F)(F)F)cc1C(F)(F)F` (stereo partly drawn) [F22, 4-((Z)-3-(3,5-Dibromophenyl)-1,4,4,4-tetrafluorobut-1-en-1-yl)-2-(trifluoromethyl)-N—((R)-1-(3,3,3-trifluoropropanamido)ethyl)benzamide], for which the pest or weed control at 50 µg/cm2 in experiment [1] and in experiment [2] was 50 to 100% throughout. Moreover, the YFM rating result in experiment [3] is “A (80-100)”.

Take `C[C@H](NC(=O)CCC(F)(F)F)NC(=O)c1ccc(/C(F)=C/C(c2cc(Br)cc(Br)c2)C(F)(F)F)cc1C(F)(F)F` (stereo partly drawn) [F23, 4-((Z)-3-(3,5-Dibromophenyl)-1,4,4,4-tetrafluorobut-1-en-1-yl)-N—((R)-1-(4,4,4-trifluorobutanamido)ethyl)-2-(trifluoromethyl)benzamide]: the pest or weed control at 50 µg/cm2 in experiment [1] and in experiment [2] was 50 to 100% in each case. Further, the YFM rating entry in experiment [3] was “A (80-100)”.

For the compound `Cc1cc(C(/C=C(\F)c2ccc(C(=O)N[C@H](C)NC(=O)CC(F)(F)F)c(C(F)(F)F)c2)C(F)(F)F)cc(C)c1Cl` (stereo partly drawn) [F24, 4-((Z)-3-(4-Chloro-3,5-dimethylphenyl)-1,4,4,4-tetrafluorobut-1-en-1-yl)-2-(trifluoromethyl)-N—((R)-1-(3,3,3-trifluoropropanamido)ethyl)benzamide], the pest or weed control at 50 µg/cm2 in experiment [1] and in experiment [2] was 50 to 100% each time. Also, the YFM rating entry in experiment [3] is “A (80-100)”.

As for `Cc1cc(C(/C=C(\F)c2ccc(C(=O)N[C@H](C)NC(=O)CCC(F)(F)F)c(C(F)(F)F)c2)C(F)(F)F)cc(C)c1Cl` (stereo partly drawn) [F25, 4-((Z)-3-(4-Chloro-3,5-dimethylphenyl)-1,4,4,4-tetrafluorobut-1-en-1-yl)-N—((R)-1-(4,4,4-trifluorobutanamido)ethyl)-2-(trifluoromethyl)benzamide], the pest or weed control at 50 µg/cm2 in experiment [1] and in experiment [2] was 50 to 100% in each case. In experiment [3], the YFM rating entry is recorded as “A (80-100)”.

Regarding `C[C@H](NC(=O)CC(F)(F)F)NC(=O)c1ccc(/C(F)=C/C(c2cc(Br)c(Cl)c(Br)c2)C(F)(F)F)cc1C(F)(F)F` (stereo partly drawn) [F26, 4-((Z)-3-(3,5-Dibromo-4-chlorophenyl)-1,4,4,4-tetrafluorobut-1-en-1-yl)-2-(trifluoromethyl)-N—((R)-1-(3,3,3-trifluoropropanamido)ethyl)benzamide], the pest or weed control at 50 µg/cm2 in experiment [1] and in experiment [2] was 50 to 100% in each case. In addition, the YFM rating entry in experiment [3] is reported as “A (80-100)”.

With `C[C@H](NC(=O)CCC(F)(F)F)NC(=O)c1ccc(/C(F)=C/C(c2cc(Br)c(Cl)c(Br)c2)C(F)(F)F)cc1C(F)(F)F` (stereo partly drawn) [F30, 4-((Z)-3-(3,5-Dibromo-4-chlorophenyl)-1,4,4,4-tetrafluorobut-1-en-1-yl)-N—((R)-1-(4,4,4-trifluorobutanamido)ethyl)-2-(trifluoromethyl)benzamide], the pest or weed control at 50 µg/cm2 in experiment [1] and in experiment [2] was 50 to 100% in each case. The YFM rating entry in experiment [3] is “A (80-100)”.

Consider `C[C@H](NC(=O)CC(F)(F)F)NC(=O)c1ccc(/C(F)=C/C(c2ccc(Br)c(Br)c2)C(F)(F)F)cc1C(F)(F)F` (stereo partly drawn) [F32, 4-((Z)-3-(3,4-Dibromophenyl)-1,4,4,4-tetrafluorobut-1-en-1-yl)-2-(trifluoromethyl)-N—((R)-1-(3,3,3-trifluoropropanamido)ethyl)benzamide], for which the pest or weed control at 50 µg/cm2 in experiment [1] and in experiment [2] was 50 to 100% throughout. In addition, the YFM rating result in experiment [3] is listed as “A (80-100)”.

On to `C[C@H](NC(=O)CC(F)(F)F)NC(=O)c1ccc(/C(F)=C/C(c2cc(Cl)cc(Br)c2)C(F)(F)F)cc1C(F)(F)F` (stereo partly drawn) [F36, 4-((Z)-3-(3-Bromo-5-chlorophenyl)-1,4,4,4-tetrafluorobut-1-en-1-yl)-2-(trifluoromethyl)-N—((R)-1-(3,3,3-trifluoropropanamido)ethyl)benzamide], for which the pest or weed control at 50 µg/cm2 in experiment [1] and in experiment [2] was 50 to 100% in each case. Moreover, the YFM rating entry in experiment [3] is listed as “A (80-100)”.

Turning to `C[C@H](NC(=O)CCC#N)NC(=O)c1ccc(/C(F)=C/C(c2cc(Cl)c(Cl)c(Cl)c2)C(F)(F)F)cc1C(F)(F)F` (stereo partly drawn) [F41, N—((R)-1-(3-Cyanopropanamido)ethyl)-4-((Z)-1,4,4,4-tetrafluoro-3-(3,4,5-trichlorophenyl)but-1-en-1-yl)-2-(trifluoromethyl)benzamide], the pest or weed control at 50 µg/cm2 in experiment [1] and in experiment [2] was 50 to 100% in each case. In experiment [3], the YFM rating entry is “A (80-100)”.

Consider `C[C@H](NC(=O)CC(F)(F)F)NC(=O)c1ccc(/C(F)=C/C(c2cc(Cl)c(Cl)c(Cl)c2)C(F)(F)F)c2ccccc12` (stereo partly drawn) [PF1, 4-((Z)-1,4,4,4-Tetrafluoro-3-(3,4,5-trichlorophenyl)but-1-en-1-yl)-N—((R)-1-(3,3,3-trifluoropropanamido)ethyl)-1-naphthamide], for which the pest or weed control at 50 µg/cm2 in experiment [1] and in experiment [2] was 50 to 100% each time. Moreover, the YFM rating result in experiment [3] was “B (More than 0-Less than 80)”.

As for `C[C@H](NC(=O)CC(F)(F)F)NC(=O)c1ccc(/C(F)=C/C(c2ccc(Cl)c(F)c2)C(F)(F)F)cc1C(F)(F)F` (stereo partly drawn) [PF2, 4-((Z)-3-(4-Chloro-3-fluorophenyl)-1,4,4,4-tetrafluorobut-1-en-1-yl)-2-(trifluoromethyl)-N—((R)-1-(3,3,3-trifluoropropanamido)ethyl)benzamide], the pest or weed control at 50 µg/cm2 in experiment [1] and in experiment [2] was 50 to 100% each time. The YFM rating result in experiment [3] is “A (80-100)”.

On to `C[C@H](NC(=O)CCC(F)(F)F)NC(=O)c1ccc(/C(F)=C/C(c2ccc(F)c(Cl)c2)C(F)(F)F)cc1C(F)(F)F` (stereo partly drawn) [PF3, 4-((Z)-3-(3-Chloro-4-fluorophenyl)-1,4,4,4-tetrafluorobut-1-en-1-yl)-N—((R)-1-(4,4,4-trifluorobutanamido)ethyl)-2-(trifluoromethyl)benzamide], for which the pest or weed control at 50 µg/cm2 in experiment [1] and in experiment [2] was 50 to 100% throughout. Further, the YFM rating result in experiment [3] was “B (More than 0-Less than 80)”.

Take `Cc1cc(C(/C=C(\F)c2ccc(C(=O)N[C@H](C)NC(=O)CC(F)(F)F)c(C(F)(F)F)c2)C(F)(F)F)cc(Cl)c1Cl` (stereo partly drawn) [PF4, 4-((Z)-3-(3,4-Dichloro-5-methylphenyl)-1,4,4,4-tetrafluorobut-1-en-1-yl)-2-(trifluoromethyl)-N—((R)-1-(3,3,3-trifluoropropanamido)ethyl)benzamide]: the pest or weed control at 50 µg/cm2 in experiment [1] and in experiment [2] was 50 to 100% in each case. Further, the YFM rating entry in experiment [3] is “B (More than 0-Less than 80)”.
